Results published in patent US20150283098A1, “PRENYLATED CHALCONE FORMULATION FOR THE TREATMENT OF BEES” (BIOACTIVE-TECH SP. Z O.O., priority 2012, published 2015).

Key:
bees [1] = test: Example 2: viability and behaviour of bees in apiary hives with low concentration of imidaclopride spray; assay type: in vivo
Experimental: Similar studies as described in example 1 were carried out in three bee hives containing ˜40,000 bees. Frames with bees (FIG. 4) were sprayed with imidaclopride dissolved in water at a concentration of 125 μl/l (microlitres per litre). It is a half of imidaclopride concentration in Kohinor 200 SL used in cultivation of vegetables in soil. The purpose of the study was to investigate low doses of imidaclopride to which mainly are exposed the bees collecting nectar during agrotechnological procedures.
The bees were studied in two groups. […] The studied group were bees which were given protective xanthohumol preparation in […] (milligram per litre) syrup for one week and then treated with imidaclopride spray at the above mentioned concentration (FIGS. 6A, 6B and 6C).

Nosema spp. = test: Spraying of bee colonies in apiary infected with Nosemosis; assay type: in vivo; conditions: several days after spraying with formulation containing xanthohumol
Excerpt: (§1) (apis and cerenae). It was found on the basis of studies (initial results) that the amount of spores observed under a microscope after the use of Xn decreased by 60% on average in relation to control. Observation under a microscope of blended dead bees was related to counting of Nosema cells in the suspension of distilled water. […] The formulation was also investigated in several bee colonies in apiary infected with Nosemosis.

[2] = cited from earlier work
[3] = test system: focal ischaemia caused by MCAO in rats; conditions: cited from earlier work
[4] = test system: Nosema spp. (apis and cerenae); test: Counting of Nosema cells under a microscope in blended dead bees; assay type: in vivo
Excerpt: as §1

bees [5] = test: Example 3: viability of bee colonies poisoned with thiamethoxam (Actara) after xanthohumol spray; assay type: in vivo
Experimental: The experiment was carried out in Loma-Zawady Przedmieście, Poland in an apiary consisting of 25 colonies based in hives of Dadant type (frame 435×300 mm). The hives had wire-net, detachable bottom in the form of a diagnostic tray. The nest body of the hives consisted of 10 frames.
Bee colonies in the form of separated colonies were purchased from local producer. Each separated colony consisted of 3 frames of brood and frames with supply of bee bread and honey. All frames were settled in “black” by bees.
The experiments were carried out on 25 swarms of bees divided into VI groups. Groups I to V, consisted of 4 hives, each.
In groups I-V, xanthohumol at the concentration of 40 mg/l was used as a protective formulation. Actara at the concentration of 0.4 g/l was used for poisoning of insects (the concentration used in spraying of beetle).
Group IV—bee colonies treated with the protective preparation in the form of spray. Poisoning with Actara by alimentary route. 20 mg of xanthohumol were dissolved in 1 ml of ethyl alcohol and subsequently added to 0.5 l of sugar syrup in water in a ration 1:1 and four hives were sprayed with spraying machine so that one bee colony received a dose of 5 mg of xanthohumol. Poisoning with Actara given with 1:1 syrup (1 kg of sugar+1 l of water).
Group V—bee colonies treated with the protective preparation in the form of spray. Poisoning with Actara by contact route. 20 mg of xanthohumol were dissolved in 1 ml of ethyl alcohol and subsequently added to 0.5 l of sugar syrup in water in a ratio 1:1 and four hives were sprayed with the spraying machine so that one bee colony received a dose of about 5 mg of xanthohumol. Poisoning was carried out in the form of small-molecule spraying which was used for each frame with bees.
In this group, a formulation of different xanthohumol concentrations was used, and Actara (thiametoxam 25%) for poisoning of bees, at a dose of 0.2 g/l (concentration used by fruit farmers) was used. The control group were bees subjected only to spraying procedure with Actara.
Group VI a)—bees were protected with the formulation of xanthohumol concentration of 0.08 mg/l.
0.01 mg of xanthohumol was dissolved in 1 ml of ethyl alcohol and subsequently added to 0.125 l of sugar syrup in water in a ratio 1:1 and 1 hive was sprayed so that one a bee colony received a dose of about 0.01 mg of xanthohumol. After 24 hours, the bee colony was poisoned by a contact route. The poisoning was carried out in the form of small-molecule spraying which was used for each frame with bees.
Group VI b)—the bees were protected with the preparation of xanthohumol in concentration 1.6 mg/l.
0.2 mg of xanthohumol was dissolved in 1 ml of ethyl alcohol and subsequently added to 0.125 l of sugar syrup in water in a ratio 1:1 and 1 hive was sprayed so that one bee colony received a dose of about 0.2 mg of xanthohumol. After 24 hours, the bee colony was poisoned by the contact route. Poisoning was carried out in the form of small-molecule spraying which was applied on each frame with the bees.
Group VI c)—the bees were protected with a formulation of xanthohumol in concentration 16 mg/l.
2 mg of xanthohumol dissolved in 1 ml of ethyl alcohol which was added to 0.125 l of sugar syrup in water in a ration of 1:1 in duplicate and it was sprayed on 2 hives so that one bee colony received a dose of about 2 mg of xanthohumol. After 24 hours, the bee colonies were poisoned by the contact route. The poisoning was carried out if the form of a small-molecule spray which was applied on each frame with bees.
Group VI d)—the bees were protected with a preparation of xanthohumol concentration 8 g/1.
1 g of xanthohumol dissolved in 10 ml of ethyl alcohol which was then added to 0.125 l of sugar syrup in water in a ratio 1:1 and it was sprayed on 1 hive so that one bee colony received a dose of about 1000 mg of xanthohumol (1 hive). After 24 hours bee colony was poisoned by a contact route. […]

bees [6] = test: Example 1: viability of bees in experimental queen cages with high concentration of imidaclopride; assay type: in vivo; conditions: 10 mg/l xanthohumol in syrup for three days, then imidaclopride (Kohinor 200 SL) 375 μl/l; controls died in 100%
Experimental: The experiment was carried out in Lublin, Poland in an apiary containing 250 bee colonies.
The influence of xanthohumol concentration in sugar syrup on the viability of bees was studied on samples of 100 bees placed in a special cage for studies, (FIG. 1). The bees were taking a protective formulation for three days in the form of xanthohumol dissolved in standard sugar syrup in three concentrations: 5, 10 and 20 mg of xanthohumol/1, respectively. Each concentration was studied in three independent small hives. After three days of taking the protective formulation, the bees received imidaclopride (in Kohinor 200 SL) in a concentration of 375 μl/l in a […] (similar doses are used for controlling of insects in vegetable cultivations). As a control group, three small hives of 100 bees each were used, which were not fed with xanthohumol containing preparation. All xanthohumol concentrations and the control group were studied in thriplicate. Xanthohumol obtained by chromatographic method from hop post-extraction waste was used. The purity of the preparation was ˜99% (FIG. 3).

bees [7] = test: Stocking of a hive contaminated with a pesticide with a protected colony; assay type: in vivo; conditions: xanthohumol in syrup 2 g/l by spray; unprotected colony collapsed
Excerpt: Furthermore, it was found on the basis of the studies with the use of the formulation according to the invention, that there is a possibility of rehabilitating the protected bees in these regions which were contaminated by pesticides, where it has not been possible so far. In the hive where a control bee colony unprotected with the preparation was stocked with new unprotected colony, it collapsed within a short time. A hive contaminated with a pesticide is poisonous for bees even after several weeks.

bees [8] = test: Example 3: effect of xanthohumol formulation itself on bee colonies (vigour, hygienic instinct, toxicity); assay type: in vivo
Experimental: Group III—bee colonies treated with the protective formulation in the form of spray without poisoning with Actara. 20 mg of xanthohumol were dissolved in 1 ml of ethyl alcohol and subsequently added to 0.5 l of sugar syrup in water in a ratio of 1:1, and four hives were sprayed with use of a spraying machine so that one bee colony received a dose of about 5 mg of xanthohumol. Actara was not used in this experiment.
1 g of xanthohumol dissolved in 10 ml of ethyl alcohol which was then added to 0.125 l of sugar syrup in water in a ratio 1:1 and it was sprayed on 1 hive so that one bee colony received a dose of about 1000 mg of xanthohumol (1 hive). After 24 hours bee colony was poisoned by a contact route. Poisoning was carried out in the form of small-molecule spray which was applied on each frame with bees.

[9] = test system: virus of sacbrood disease and mycosis and Nosemosis; test: Other studies in Poland: colonies with sacbrood disease, mycosis and Nosemosis; assay type: in vivo, bees; conditions: 5 mg per one bee colony
Experimental: The studies prowed that the formulation containing xanthohumol (at a dose of 5 mg per one bee colony) may be used also for the treatment of the virus of sacbrood disease and mycosis and Nosemosis. […] The increased hygienic instinct was shown by studies carried out on bee colonies by a dozen of beekeepers in Poland.

In the case of `COc1cc(O)c(CC=C(C)C)c(O)c1C(=O)/C=C/c1ccc(O)cc1` [xanthohumol], the behaviour of bees (bees [1]; two weeks after the administration of imidaclopride) is reported as “did not show any differences in behaviour compared to the healthy hives”, the bees died (bees [1]; xanthohumol 10 mg/ml (milligram per litre) syrup for one week, then imidaclopride spray 125 μl/l) is reported as ~10% and the “time from spraying until bees started to fly to the pasture and bring pollen” value (bees [1]; xanthohumol syrup one week, imidaclopride spray 125 μl/l) is reported as “Three”. For the same compound, the “typical symptoms of Nosema spp. infection (soiling of frames and front wall of the hive with feces)” value (Nosema spp.) was “disappeared”, the water solubility [2] was “poor” and the “area of brain ischaemic necrosis” value [3] was “significantly decreased”. The “decrease of amount of Nosema spores observed under a microscope in relation to control” value ([4]; after the use of Xn, on average, initial results) was 60%, the “number of Nosema pieces in suspension of blended dead bees” value ([4]; after using the formulation for 1 week, bees without Xn 30±3) was 8±2 pieces and the losses of bees (bees [5]; Group IV: xanthohumol 40 mg/l spray, Actara 0.4 g/l alimentary route after 24 hours) was 35%. For the same compound, the “memory / flights for pollen of surviving colonies” value (bees [5]; Group IV: xanthohumol 40 mg/l, Actara 0.4 g/l alimentary route) was “did not lose memory”, the losses of bees (bees [5]; Group V: xanthohumol 40 mg/l spray, Actara 0.4 g/l contact route after 24 hours) was 10% and the “memory / flights for pollen of surviving colonies” value (bees [5]; Group V: xanthohumol 40 mg/l, Actara 0.4 g/l contact route) was “did not lose memory and carried pollen”. The “behaviour of the colony” value (bees [5]; Group VI a survivors, a week after post-poisoning spraying with xanthohumol 1.6 mg/l, dose of 2 mg) was “returned to normal”, the “time until bees restarted flights around the hive” value (bees [5]; Group VI a survivors, sprayed after poisoning with xanthohumol 1.6 mg/l, dose of 2 mg) was 48 h and the “part of bee colony that did not survive” value (bees [5]; Group VI a: xanthohumol 0.08 mg/l (0.01 mg per colony), Actara 0.2 g/l contact after 24 hours) was 60%. For the same compound, the “restart of flights for pollen by surviving bees” value (bees [5]; Group VI a: xanthohumol 0.08 mg/l, Actara 0.2 g/l) was “did not restart flights for pollen either after 24 hours or 48 hours”, the “part of bee colony that did not survive” value (bees [5]; Group VI b: xanthohumol 1.6 mg/l (0.2 mf per colony), Actara 0.2 g/l contact) was “about 40%” and the “time until surviving bees restarted flights for pollen” value (bees [5]; Group VI b: xanthohumol 1.6 mg/l, Actara 0.2 g/l) was 48 h. For the same compound, the symptoms of poisoning (bees [5]; Group VI c: seven days from poisoning) was “do not show any symptoms of poisoning”, the survival of bees (bees [5]; Group VI c: xanthohumol 16 mg/l (2 mg per colony), Actara 0.2 g/l contact) was “almost all bees survived” and the “time until surviving bees restarted flights for pollen” value (bees [5]; Group VI c: xanthohumol 16 mg/l, Actara 0.2 g/l) was 24 h. For the same compound, the symptoms of poisoning (bees [5]; Group VI d: after seven days) was “did not show any symptoms of poisoning”, the losses of bees (bees [5]; Group VI d: xanthohumol 8 g/l (1 g per colony), Actara 0.2 g/l) was 10% and the bees survived (bees [5]; Group VI d: xanthohumol 8 g/l (1 g per colony), Actara 0.2 g/l contact after 24 hours) was 90%. For the same compound, the viability of bees (bees [6]) was ~45%, the “fate of protected colony put into pesticide-contaminated hive” value (bees [7]) was “still lived and did not show symptoms of poisoning” and the “behaviour and hygienic instinct of bee colony” value (bees [8]; Group III: spray, xanthohumol 40 g/l, about 5 mg per colony, no Actara) was “improved the behaviour of bee colony and significantly influenced hygienic instinct of a bee”. For the same compound, the “Varroa destructor mites on the diagnostic tray” value (bees [8]; Group III: spray, xanthohumol 40 g/l, no Actara, not observed in control hives) was “Dead mites Varroa destructor were also observed”, the “symptoms increasing the vigour” value (bees [8]; Group VI a: 0.01 mg xanthohumol per colony) was “no symptoms increasing the vigour” and the “toxic effects of xanthohumol preparation on bees” value (bees [8]; Group VI d: 1 gram per hive (8 g/l), inspected 24 hours after use, before poisoning) was “did not cause any toxic effects”. The “movement of bees at the beehive entrance” value (bees [8]; all studied concentrations of xanthohumol, compared to control hives) was “increased movement of bees was observed at the beehive entrance”, the “brooding of bee mothers compared with the control” value (bees [8]; first half of August, hives protected with the preparation) was “significant increase” and the “effect in colonies with mycosis and Nosemosis” value [9] was “fast purification of the nest from dead insects occurred”. For the same compound, the “effect in colonies with sacbrood disease” value [9] was “the colony started to work”.
